From patent US9872861B2, “Methods of treatment using selective Bcl-2 inhibitors” (AbbVie Inc., priority 2010, dated 2018)
Marks after values point to notes of the source that are not given here.

Experiments:
Mcl-1 = Mcl-1 (Homo sapiens, UniProt Q07820); assay: TR FRET competitive binding affinity, Mcl-1; settings: read-out: Target Affinity TR FRET, Mcl-1
Method: A comparison of the binding affinity for each of the compounds was performed to determine target affinity, as measured by Time-Resolved Fluorescence Resonance Energy Transfer (TR FRET).

RS4;11 cells = assay: Cellular efficacy in Bcl-2 dependent tumor cell line RS4;11; assay type: cell-based, human; settings: 10% HS
FL5.12-Bcl-XL cells = assay: Cellular efficacy in FL5.12 cells dependent on Bcl-XL; assay type: cell-based, murine; settings: Mus musculus, 3% FBS
H146 cells = assay: Cellular efficacy in Bcl-XL dependent tumor cell line H146; assay type: cell-based; settings: Homo sapiens, NCI-H146; 10% HS
[1] = system: spontaneous (NZB×NZW)F1 murine model of lupus; assay: Spontaneous (NZB×NZW)F1 murine model of lupus: proteinuria, survival, lymphopenia; assay type: in vivo, (NZB×NZW)F1 mice
Text: (See Liu, K. and C. Mohan, What do mouse models teach us about human SLE? Clin Immunol, 2006. 119(2): p. 123-30) This model has been well-characterized with respect to the patho-physiological changes analogous to those of human SLE. […] Renal histopathological changes include severe glomerulonephritis, mesangial and peripheral proliferative changes, capillary membrane thickening, tubular atrophy, and infiltration of lymphocytes and monocytes/macrophages as in the majority of human SLE patients. These changes result in disruption of kidney function as evidenced by severe proteinuria (PU) greater than 300 mg/dL as measured by albumin sticks, followed by mortality as measured by survival. […] (See Gelfand, M. C. and A. D. Steinberg, Therapeutic studies in NZB-W mice. II. Relative efficacy of azathioprine, cyclophosphamide and methylprednisolone. Arthritis Rheum, 1972. 15(3): p. 247-52; and Ramos, M. A., et al., Modulation of autoantibody production by mycophenolate mofetil: effects on the development of SLE in (NZB×NZW)F1 mice. Nephrol Dial Transplant, 2003. 18(5): p. 878-83)
(NZB×NZW)F1 females were purchased from The Jackson Laboratory (Bar Harbor, Me., USA) and maintained in a conventional animal housing facility throughout the experiment. […] Proteinuria (PU) and survival were monitored weekly, followed by biweekly measurement of lymphocyte and platelet counts, and anti-ds DNA production. PK parameters were also measured throughout the study. Impact on IgG deposition and renal pathology were assessed at the conclusion of the study. Severe PU was defined by two consecutive weekly measurements of PU 300 mg/dl using Albustix test strips (VWR). When mice became moribund, they were sacrificed according to Institutional Animal Care and Use Committee protocols. PU and survival data were presented as Kaplan-Meyer survival curves using Graphpad Prism software and group differences were considered significant at the level of p<0.05. Histologic scores were analyzed using ANOVA analysis. Anti-ds DNA were analyzed using one-way ANOVA analysis and Tukey post-test.

Chain of Mcl-1 (Q07820 whole entry): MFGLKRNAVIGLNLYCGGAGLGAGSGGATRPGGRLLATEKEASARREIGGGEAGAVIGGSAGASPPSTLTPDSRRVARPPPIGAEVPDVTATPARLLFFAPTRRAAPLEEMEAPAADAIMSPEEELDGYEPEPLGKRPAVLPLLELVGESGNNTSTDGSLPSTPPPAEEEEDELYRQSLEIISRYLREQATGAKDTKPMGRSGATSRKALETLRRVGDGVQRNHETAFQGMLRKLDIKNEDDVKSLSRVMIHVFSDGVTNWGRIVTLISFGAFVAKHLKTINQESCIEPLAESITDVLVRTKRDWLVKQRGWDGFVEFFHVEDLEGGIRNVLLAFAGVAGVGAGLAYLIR

## CC1(C)CCC(CN2CCN(c3ccc(C(=O)NS(=O)(=O)c4ccc(NCC5CCOCC5)c([N+](=O)[O-])c4)c(Oc4cnc5[nH]ccc5c4)c3)CC2)=C(c2ccc(Cl)cc2)C1 [Compound 1, 4-(4-{[2-(4-chlorophenyl)-4,4-dimethylcyclohex-1-en-1-yl]methyl}piperazin-1-yl)-N-({3-nitro-4-[(tetrahydro-2H-pyran-4-ylmethyl)amino]phenyl}sulfonyl)-2-(1H-pyrrolo[2,3-b]pyridin-5-yloxy)benzamide]
Mcl-1
  Ki: > 440 nM
RS4;11 cells
  EC50: 12 nM
FL5.12-Bcl-XL cells
  EC50: 261 nM
H146 cells
  EC50: 3600 nM
[1]; Week 47, 1 mg/kg daily oral
  % Mice with PU < 300 mg/dL: 51%
  % Survival: 60%
[1]; Week 47, 3 mg/kg daily oral
  % Mice with PU < 300 mg/dL: 50%
  % Survival: 70%
[1]; Week 47, 10 mg/kg daily oral
  % Mice with PU < 300 mg/dL: 66* %
  % Survival: 83* %
[1]; Week 47, 30 mg/kg daily oral
  % Mice with PU < 300 mg/dL: 94* %
  % Survival: 100* %
[1]; Week 47, 100 mg/kg daily oral
  % Mice with PU < 300 mg/dL: 100* %
  % Survival: 100* %
[1]; spontaneous model, 30 mg/kg
  lymphopenia in peripheral blood: 70%
[1]; spontaneous model, 100 mg/kg
  lymphopenia in peripheral blood: 70%
[1]; spontaneous model, 3, 10, 30 and 100 mg/kg
  survival: significantly prolonged survival
[1]; spontaneous model, reaching significance at 10, 30 and 100 mg/kg
  onset of severe PU: delayed onset of severe PU in a dose-dependent fashion
